This note sets out measurements from patent publication US8044068B2, “Aminopyrrolidine compound” (Taisho Pharmaceutical Co., Ltd, priority 2006, dated 2011).

This experiment addresses T1, human MC4 receptor (Homo sapiens, UniProt P32245).
T1 construct: purchased Biolinks K.K; host or cells: HEK-293
Briefly: MC4 receptor binding experiment ([125I]Nle4-D-Phe7-α-MSH displacement). Particulars: human MC4 receptor expressing HEK-293 cell membrane; [125I]Nle4-D-Phe7-α-MSH 0.2 nM, 25° C. The method, then: The MC4 receptor binding experiment was performed according to the method described in Pharmacology & Toxicology, 79, 161-165, 1996. The human MC4 receptor expressing-cell membrane obtained by expressing the human MC4 receptor in a HEK-293 cell was purchased from Biolinks K.K. The cell membrane was homogenized with 50 mM tris hydrochloride buffer (pH 7.4) containing 2 mM ethylenediaminetetraacetic acid, 10 mM calcium chloride, and 100 μM phenylmethylsulfonyl fluoride. The homogenate was centrifuged at 48,000×g at 4° C. for 20 min. The sediment obtained by centrifugation was rehomogenized with the same buffer, and the homogenate was centrifuged at 48,000×g at 4° C. for 20 min. This procedure was repeated twice. The sediment was suspended in 50 mM tris hydrochloride buffer (pH 7.4) containing 2 mM ethylenediaminetetraacetic acid, 10 mM calcium chloride, 100 μM phenylmethylsulfonyl fluoride, and 0.1% bovine serum albumin at a protein concentration of 100 μg/ml, and the suspension was used as a crude membrane preparation for the binding experiment. The crude membrane preparation (0.25 ml, 25 μg protein) was reacted with [^125I]Nle^4-D-Phe^7-α-MSH (final concentration, 0.2 nM) at 25° C. for 120 min. After completion of the reaction, the reaction solution was filtered by suction, using a cell harvester for the receptor binding experiment, onto a GF/C glass fiber filter paper immersed in 50 mM tris hydrochloride buffer (pH 7.4) containing 0.5% bovine serum for 2 h. Radioactivity on the filter paper was measured using a γ counter. The quantity of binding in the presence of 1 μM Nle^4-D-Phe^7-α-MSH was obtained as nonspecific binding, and specific binding was obtained by deducting the nonspecific binding from the total quantity, binding in the absence of 1 μM Nle^4-D-Phe^7-α-MSH. The test drug was dissolved in 100% DMSO solution and added to the membrane preparation at the same time as [^125I]Nle^4-D-Phe^7-α-MSH. The IC50 value was obtained from the inhibition curve in the range of 10^−10 to 10^−5 M. The binding test results of representative compounds are shown in Table 21 as examples.

Structures can show the parent of a compound that is named as a salt.

T1 sequence (P32245 whole entry): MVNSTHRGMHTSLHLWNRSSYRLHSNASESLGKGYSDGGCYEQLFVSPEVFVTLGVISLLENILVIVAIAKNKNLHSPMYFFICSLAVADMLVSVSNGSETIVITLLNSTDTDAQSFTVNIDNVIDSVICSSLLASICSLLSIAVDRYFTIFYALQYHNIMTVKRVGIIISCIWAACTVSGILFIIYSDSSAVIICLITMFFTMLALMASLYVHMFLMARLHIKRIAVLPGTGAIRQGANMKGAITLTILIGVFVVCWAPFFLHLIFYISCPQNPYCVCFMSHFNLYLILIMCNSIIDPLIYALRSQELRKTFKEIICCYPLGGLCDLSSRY

Regarding `COc1ccc2nc(N[C@@H]3CN(C(=O)Cc4ccc(OC(F)(F)F)cc4)C[C@H]3OC)cc(OC)c2c1` [Compound 12-018], the IC50 (as a rule, the concentration at which inhibition is half-maximal) stood at 0.0034 µM.
As to `COc1ccc2nc(N[C@@H]3CN(C(=O)Cc4ccc(OC(F)(F)F)cc4)C[C@H]3O)nc(N3CCN(C(C)=O)CC3)c2c1` [Compound 11-015], the IC50 was 0.001 µM.
Consider `COc1ccc2nc(N[C@@H]3CN(C(=O)Cc4ccc(OC(F)(F)F)cc4)C[C@H]3O)cc(N3CCOCC3)c2c1` [Compound 12-001], for which the IC50 worked out at 0.0029 µM.
`CN(C)C(=O)N1CCN(c2nc(N[C@H]3CCN(C(=O)Cc4ccc(OC(F)(F)F)cc4)C3)nc3ccccc23)CC1` [Compound 1-174] showed a 50% inhibitory concentration (IC50) of 0.021 µM.
Take `COc1ccc2nc(N[C@H]3CCN(C(=O)Cc4ccc(OC(F)(F)F)cc4)C3)cc(N3CCOCC3)c2c1` [Compound 3-011, (S)-1-(3-(6-methoxy-4-morpholinoquinolin-2-ylamino)pyrrolidin-1-yl)-2-(4-trifluoromethoxyphenyl)ethanone]: the IC50 was determined as 0.0068 µM.
Consider `CO[C@@H]1CCN(c2cc(C)nc(N[C@@H]3CN(C(=O)Cc4ccc(OC(F)(F)F)cc4)C[C@H]3O)n2)C1` [Compound 13-004], for which the IC50 stood at 0.046 µM.
Take `CC(=O)N1CCN(c2nc(N[C@@H]3CN(C(=O)Cc4ccc(OC(F)(F)F)cc4)C[C@H]3O)nc3cscc23)CC1` [Compound 8-007]: the IC50 came out at 0.01 µM.
For `O=C(Cc1ccccc1-c1ccccc1)N1CC[C@H](Nc2nc(N3CCc4ccccc4C3)c3ccc(F)cc3n2)C1` [Compound 1-101] the value was 0.068 µM.
Then `O=C1CN(c2nc(N[C@H]3CCN(C(=O)C4(c5ccc(Cl)cc5)CC4)C3)nc3cc(F)ccc23)CCN1` [Compound 15-003], with 0.026 µM; and `Cc1cc(N[C@@H]2CCN(S(C)(=O)=O)C2)nc(N[C@@H]2CN(C(=O)Cc3ccc(OC(F)(F)F)cc3)C[C@H]2O)n1` [Compound 13-002], with 0.025 µM; and `Cc1cc(N2CCCOCC2)nc(N[C@H]2CCN(C(=O)Cc3ccc(OC(F)(F)F)cc3)C2)n1` [Compound 4-058], with 0.028 µM.
Regarding `O=C(Cc1ccc(OC(F)(F)F)cc1)N1C[C@@H](O)[C@H](Nc2nc(N3CCOCC3)c3cscc3n2)C1` [Compound 8-006], the IC50 is 0.01 µM.
Take `Cc1cc(N[C@H]2CCN(C(=O)Cc3ccc(OC(F)(F)F)cc3)C2)nc2ccc(F)cc12` [Compound 3-019]: the IC50 is 0.078 µM.
`CS(=O)(=O)N1CC[C@@H](Nc2nc(N[C@@H]3CN(C(=O)Cc4ccc(OC(F)(F)F)cc4)C[C@H]3O)nc3ccc(Cl)cc23)C1` [Compound 11-008] yielded an IC50 of 0.0013 µM.
Turning to `Cc1ccc2nc(N[C@H]3CCN(C(=O)Cc4ccc(OC(F)(F)F)cc4)C3)nc(NCCc3ccccn3)c2c1` [Compound 1-019], the IC50 was 0.01 µM.
In turn, `Cc1cc(N2CCS(=O)(=O)CC2)cc(N[C@H]2CCN(C(=O)Cc3ccc(OC(F)(F)F)cc3)C2)n1` [Compound 5-006, 1-((S)-3-(4-(1,1-dioxo-1λ^6-thiomorpholin-4-yl)-6-methylpyridin-2-ylamino)pyrrolidin-1-yl)-2-(4-trifluoromethoxyphenyl)ethanone] yielded an IC50 of 0.0093 µM.
On to `COc1ccc2nc(N[C@H]3CCN(C(=O)Cc4ccc(OC(F)(F)F)cc4)C3)nc(N3CCC(S(C)(=O)=O)CC3)c2c1` [Compound 1-078], for which the IC50 came out at 0.0015 µM.
As for `COc1ccc2nc(N[C@H]3CCN(C(=O)Cc4ccc(OC(F)(F)F)cc4)C3)nc(N[C@@H]3CCN(C(C)=O)C3)c2c1` [Compound 1-032], the 50% inhibitory concentration (IC50) was found to be 0.0004 µM.
Compound `Cc1ccc2nc(N[C@@H]3CN(C(=O)Cc4ccc(OC(F)(F)F)cc4)C[C@H]3O)cc(C)c2c1` [Compound 12-004] had an IC50 of 0.013 µM.
For `O=C(Cc1ccc(OC(F)(F)F)cc1)N1CC[C@H](Nc2nc(N3CCC(N4CCOCC4)CC3)c3ccc(F)cc3n2)C1` [Compound 1-092], the IC50 is 0.037 µM.
`COc1ccc2nc(N[C@H]3CCN(C(=O)Cc4ccc(OC(F)(F)F)cc4)C3)nc(N3CCN(C(=O)c4cccnc4)CC3)c2c1` [Compound 1-176]: the concentration for half-maximal inhibition (IC50) was found to be 0.001 µM.
In the case of `CO[C@@H]1CN(C(=O)Cc2ccc(OC(F)(F)F)cc2)C[C@H]1Nc1nc(C)cc(N2CCOCC2)n1` [Compound 13-008], the IC50 was 0.036 µM.
`Cc1cc(N2CCOCC2)nc(N[C@H]2CCN(C(=O)Cc3ccc(OC(F)(F)F)cc3)C2)n1` [Compound 4-044] gave an IC50 of 0.056 µM.
Compound `CO[C@H]1CN(c2nc(N[C@H]3CCN(C(=O)Cc4ccc(OC(F)(F)F)cc4)C3)nc3ccccc23)C[C@H]1OC` [Compound 1-206] gave a concentration for half-maximal inhibition (IC50) of 0.0023 µM.
Then `Cc1cc(N[C@H]2CCN(S(C)(=O)=O)C2)nc(N[C@H]2CCN(C(=O)Cc3ccc(OC(F)(F)F)cc3)C2)n1` [Compound 4-022], with 0.03 µM; and `COc1ccc2nc(N[C@@H]3CN(C(=O)Cc4ccc(OC(F)(F)F)cc4)C[C@H]3OC)cc(C)c2c1` [Compound 12-010], with 0.003 µM; and `Cc1cc(N[C@@H]2CN(C(=O)Cc3ccc(OC(F)(F)F)cc3)C[C@H]2O)nc2ccc(O)cc12` [Compound 12-007], with 0.014 µM.
`COc1ccc2nc(N[C@H]3CCN(C(=O)Cc4ccc(OC(F)(F)F)cc4)C3)cc(C)c2c1` [Compound 3-023] showed an IC50 of 0.0024 µM.
For the compound `COc1ccc2nc(N[C@@H]3CN(C(=O)Cc4ccc(OC(F)(F)F)cc4)C[C@H]3O)nc(N3CCC(S(C)(=O)=O)CC3)c2c1` [Compound 11-014], the half-maximal inhibitory concentration (IC50) came to 0.0014 µM.
`COc1ccc2nc(N[C@H]3CCN(C(=O)C(C)(C)c4ccc(Cl)cc4)C3)cc(C)c2c1` [Compound 3-041] had an IC50 of 0.046 µM.
For `CN(C)c1nc(N[C@H]2CCN(C(=O)Cc3ccc(OC(F)(F)F)cc3)C2)nc2ccsc12` [Compound 6-001, (S)-1-(3-(4-dimethylaminothieno[3,2-d]pyrimidin-2-ylamino)pyrrolidin-1-yl)-2-(4-trifluoromethoxyphenyl)ethanone 1 maleate], the IC50 was 0.071 µM.
Regarding `CS(=O)(=O)C1CCN(c2nc(N[C@H]3CCN(C(=O)Cc4ccc(OC(F)(F)F)cc4)C3)nc3cscc23)CC1` [Compound 8-005], the IC50 was determined as 0.012 µM.
`O=C1CN(c2nc(N[C@H]3CCN(C(=O)Cc4ccccc4-c4ccccc4)C3)nc3ccccc23)CCN1` [Compound 1-128] showed an IC50 of 0.0073 µM.
In turn, `Cc1cc(N2CCS(=O)(=O)CC2)nc(N[C@H]2CCN(C(=O)Cc3ccc(OC(F)(F)F)cc3)C2)n1` [Compound 4-054] showed an IC50 of 0.039 µM.
`CO[C@@H]1CN(C(=O)Cc2ccc(OC(F)(F)F)cc2)C[C@H]1Nc1cc(N2CCS(=O)(=O)CC2)cc(C)n1` [Compound 14-003] gave an IC50 of 0.0074 µM.
With `O=C(Cc1ccccc1-c1ccccc1)N1CC[C@H](Nc2nc(N3CCC(n4ccnc4)CC3)c3ccccc3n2)C1` [Compound 1-095], the IC50 was 0.022 µM.
With `Cc1cc(N[C@H]2CCN(C(=O)C3(c4ccc(Cl)cc4)CC3)C2)nc2ccc(O)cc12` [Compound 3-038], the IC50 was determined as 0.02 µM.
Compound `O=C(Cc1ccc(OC(F)(F)F)cc1)N1C[C@@H](O)[C@H](Nc2nc(N3CCOCC3)c3cc(Cl)ccc3n2)C1` [Compound 11-009] gave a concentration for half-maximal inhibition (IC50) of 0.0061 µM.
`CO[C@@H]1CN(C(=O)Cc2ccc(OC(F)(F)F)cc2)C[C@H]1Nc1cc(N2CCOCC2)cc(C)n1` [Compound 14-002] gave an IC50 of 0.019 µM.
`CC(=O)N1CCN(c2nc(N[C@H]3CCN(C(=O)Cc4ccc(OC(F)(F)F)cc4)C3)nc3cscc23)CC1` [Compound 8-004] returned a 50% inhibitory concentration (IC50) of 0.011 µM.
In the case of `Cc1ccc2nc(N[C@H]3CCN(C(=O)Cc4ccc(OC(F)(F)F)cc4)C3)nc(N(C)C)c2c1` [Compound 1-003], the IC50 turned out to be 0.018 µM.
As for `COc1ccc2nc(N[C@@H]3CN(C(=O)Cc4ccc(OC(F)(F)F)cc4)C[C@H]3O)nc(N[C@@H]3CCN(S(C)(=O)=O)C3)c2c1` [Compound 11-012], the IC50 turned out to be 0.0003 µM.
Then `Cc1cc(N[C@H]2CCN(C(=O)Cc3ccc(OC(F)(F)F)cc3)C2)nc2ccc(O)cc12` [Compound 3-022], with 0.0095 µM; and `COc1ccc2nc(N[C@H]3CCN(C(=O)Cc4ccc(OC(F)(F)F)cc4)C3)nc(N[C@@H]3CCN(S(C)(=O)=O)C3)c2c1` [Compound 1-040], with 0.0004 µM; and `CO[C@@H]1CN(C(=O)Cc2ccc(OC(F)(F)F)cc2)C[C@H]1Nc1cc(C)c2cc(O)ccc2n1` [Compound 12-008, 1-((3R,4R)-3-(6-hydroxy-4-methylquinolin-2-ylamino)-4-methoxypyrrolidin-1-yl)-2-(4-trifluoromethoxyphenyl)ethanone], with 0.012 µM.
For `O=C(c1ccc(F)cc1)C1CCN(c2nc(N[C@H]3CCN(C(=O)Cc4ccccc4-c4ccccc4)C3)nc3ccccc23)CC1` [Compound 1-073] the value was 0.039 µM; for `CCCN(CC1CC1)c1cc(C)nc(N[C@H]2CCN(C(=O)Cc3ccc(OC(F)(F)F)cc3)C2)n1` [Compound 4-035], 0.052 µM.
